According to the NIST ThermoML archive (doi:10.1021/je900643r):
Numbers after ± are expanded uncertainties.

Columns and labels:
[1] = 298.15 K; for surface tension liquid-gas: Drop volume; for mass density: 101.33 kPa, Liquid
[2] = xn = mol fraction of the nth substance listed; conditions: 298.15 K; for surface tension liquid-gas: Drop volume; for mass density: 101 kPa, Liquid

CCCOC(=O)CC [propyl propanoate]
[1]
Conditions | mass density [kg/m3] | surface tension liquid-gas [mN/m]
– | 875.53 ± 0.64 | 24.1 ± 0.19

CCCCCC [hexane]
[1]
Conditions | mass density [kg/m3] | surface tension liquid-gas [mN/m]
– | 654.7 ± 0.7 | 17.91 ± 0.13

Cc1ccc(C)cc1 [1,4-dimethylbenzene]
[1]
Conditions | mass density [kg/m3] | surface tension liquid-gas [mN/m]
– | 856.51 ± 0.68 | 27.7 ± 0.21

Cc1ccc(C)cc1 [1,4-dimethylbenzene] + CCCCCC
[2]
Conditions | mass density [kg/m3] | surface tension liquid-gas [mN/m]
x2 = 0.0393 | 848.42 ± 0.5 | –
x2 = 0.0535 | – | 26.84 ± 0.2
x2 = 0.0718 | – | 26.58 ± 0.2
x2 = 0.0869 | 838.63 ± 0.51 | –
x2 = 0.1265 | – | 25.76 ± 0.19
x2 = 0.1341 | – | 25.66 ± 0.19
x2 = 0.1535 | 824.96 ± 0.51 | –
x2 = 0.208 | 813.78 ± 0.52 | –
x2 = 0.3063 | 793.59 ± 0.54 | –
x2 = 0.3083 | – | 23.45 ± 0.17
x2 = 0.3397 | – | 23.1 ± 0.17
x2 = 0.3524 | 784.21 ± 0.55 | –
x2 = 0.399 | – | 22.47 ± 0.17
x2 = 0.4333 | 767.75 ± 0.56 | –
x2 = 0.467 | – | 21.81 ± 0.16
x2 = 0.4867 | 756.93 ± 0.57 | –
x2 = 0.492 | – | 21.59 ± 0.16
x2 = 0.5267 | – | 21.29 ± 0.16
x2 = 0.5404 | 746.02 ± 0.58 | –
x2 = 0.5836 | 737.32 ± 0.59 | –
x2 = 0.6034 | – | 20.67 ± 0.15
x2 = 0.638 | 726.41 ± 0.6 | –
x2 = 0.6394 | – | 20.39 ± 0.15
x2 = 0.6877 | – | 20.07 ± 0.15
x2 = 0.6903 | 715.94 ± 0.61 | –
x2 = 0.7826 | – | 19.41 ± 0.14
x2 = 0.7872 | 696.69 ± 0.63 | –
x2 = 0.8126 | – | 19.22 ± 0.14
x2 = 0.8297 | 688.25 ± 0.64 | –
x2 = 0.8798 | – | 18.79 ± 0.14
x2 = 0.8952 | 675.28 ± 0.66 | –
x2 = 0.9417 | 666.19 ± 0.67 | –
